Values after ≈ are worked out from the molar mass of the structure shown. Where two headings read alike, the source gives them in different places.
Key:
[1] = tested on: HCMV recombinant mutant virus whose genome contains the prokaryotic beta-glucuronidase gene; assay: microbe, parasite or virus in culture; assay type: cell-based, human cytomegalovirus; conditions: Human betaherpesvirus 5, Fibroblast, read-out: IC50 ug/ml HCMV, HCMV, human foreskin fibroblasts
Procedure, shortened: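 Human foreskin fibroblasts infected with HCMV recombinant carrying beta-glucuronidase under a viral promoter (e.g. RV145) in presence of compound. At 96 h post-infection, lysates assayed for beta-glucuronidase by colorimetric or fluorogenic substrate as replication readout; IC50 estimated from varying compound amounts.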

HSV- I = assay: HSV antiviral (ELISA) assay; assay type: cell-based; conditions: read-out: IC50 (ug/ml) HSV
Description: Vero cells (ATCC #CCL-81) are plated on 96-well tissue culture plates at 3.5x10^4 cells per 100µl tissue culture DMEM (Dulbecco's modified Eagle media) supplemented with 2% fetal bovine serum (FBS) in each well. After overnight incubation @ 37°C (in 5% CO2) and 30 minutes prior to infection with HSV- I (multiplicity of infection equal to 0.006), cells are either untreated, or treated with test compound (multiple concentrations) or reference standard drug control. After approximately 24 hours post-infection incubation @ 37°C (in 5% CO2), cells are fixed for ELISA assay. The primary antibody is murine anti-HSV glycoprotein D monoclonal primary antibody and the secondary antibody is goat anti-mouse IgG linked to β-galactosidase. Thus the extent of viral replication is determined by assessing β-galactosidase activity by quantifying the generation of the 4-methyl umbelliferone fluorescent cleavage product after addition of the methyl umbelliferyl-β-D-galactoside (Sigma #M1633) substrate on a microfluorimeter (365nm for excitation and 450nm for emission). Antiviral activity (IC50) of the test compound is determined by comparing the flourescence obtained in absence of compound to that obtained in the presence of compound.

VZV strain Ellen = assay: VZV antiviral (ELISA) assay; assay type: cell-based; conditions: Human alphaherpesvirus 3, HFF; for inhibition at 10 µg/mL: read-out: % inhibition 10 ug/ml VZV
Procedure, shortened: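 HFF cells infected with VZV Ellen at multiplicity below 0.1 overnight, then mixed infected/uninfected cells seeded with compound in DMEM/2% FBS and incubated three days at 37°C, 5% CO2.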

[2] = read-out: IC50 (ug/ml) VZV, VZV strain Ellen, HFF cells, ELISA

Row | Compound | IC50 [1] [µg/mL] | IC50 (HSV- I; HSV- I, Vero cells, ELISA) [µg/mL] | inhibition at 10 µg/mL (VZV strain Ellen) [%] | IC50 (VZV strain Ellen; read-out: IC50 (ug/ml) VZV) [µg/mL] | IC50 (HSV- I; Vero) [µg/mL] | IC50 (VZV strain Ellen; [2]) [µg/mL]
1 | COc1cc(OC)c(NC(=S)Nc2ccc(NC(=O)c3ccccc3N)cc2)cc1Cl [Example 181, 2-Amino-N-{4-[3-(5-chloro-2,4-dimethoxy-phenyl)-thioureido]-phenyl}-benzamide] | > 10 | 1.5 (≈ 3.28 µM) | 60 | > 10 |  | 
2 | COc1cc(OC)c(NC(=S)Nc2ccc(NC(=O)c3ccccc3-c3ccccc3)cc2)cc1Cl [Example 182, Biphenyl-2-carboxylic acid {4-[3-(5-chloro-2,4-dimethoxy-phenyl)-thioureido]-phenyl}-amide] | 10 (≈ 19.3 µM) |  | 32 |  | 10 (≈ 19.3 µM) | > 10
3 | COc1cc(OC)c(NC(=S)Nc2ccc(NC(=O)c3ccccc3C(=O)O)cc2)cc1Cl [Example 184, N-{4-[3-(5-Chloro-2,4-dimethoxy-phenyl)-thioureido]-phenyl}-phthalamic acid] | > 50 |  |  |  | > 50 | > 10
4 | COc1cc(OC)c(NC(=S)Nc2ccc(NC(=O)c3ccccc3CO)cc2)cc1Cl [Example 185, N-{4-[3-(5-Chloro-2,4-dimethoxy-phenyl)-thioureido]-phenyl}-2-hydroxy-methyl-benzamide] | 10 (≈ 21.2 µM) | 3 (≈ 6.36 µM) | 32 | > 10 |  | 
5 | COc1cc(OC)c(NC(=S)Nc2ccc(NC(=O)c3cccc(F)c3F)cc2)cc1Cl [Example 186, N-{4-[3-(5-Chloro-2,4-dimethoxy-phenyl)-thioureido]-phenyl}-2,3-difluoro-benzamide] | > 10 | 0.2 (≈ 0.418 µM) | 52 | > 10 |  | 
6 | COc1cc(OC)c(NC(=S)Nc2ccc(NC(=O)c3cc(F)ccc3F)cc2)cc1Cl [Example 187, N-{4-[3-(5-Chloro-2,4-dimethoxy-phenyl)-thioureido]-phenyl}-2,5-difluoro-benzamide] | > 10 | 0.2 (≈ 0.418 µM) | 53 | > 10 |  | 
7 | COc1cc(OC)c(NC(=S)Nc2ccc(NC(=O)c3ccc(F)cc3F)cc2)cc1Cl [Example 188, N-{4-[3-(5-Chloro-2,4-dimethoxy-phenyl)-thioureido]-phenyl}-2,4-difluoro-benzamide] | > 10 | 1.2 (≈ 2.51 µM) | 22 | > 10 |  | 
8 | COc1cc(OC)c(NC(=S)Nc2ccc(NC(=O)c3ccccc3NC(C)=O)cc2)cc1Cl [Example 189, 2-Acetylamino-N-{4-[3-(5-chloro-2,4-dimethoxy-phenyl)-thioureido]-phenyl}-benzamide] | > 10 | 2.5 (≈ 5.01 µM) | 59 | > 10 |  | 
9 | COc1cc(OC)c(NC(=S)Nc2ccc(NC(=O)c3ccccc3NS(C)(=O)=O)cc2)cc1Cl [Example 191, N-{4-[3-(5-Chloro-2,4-dimethoxy-phenyl)-thioureido]-phenyl}-2-methane-sulfonylamino-benzamide] | > 10 |  | 22 |  | 8 (≈ 15 µM) | > 10
10 | COc1cc(OC)c(NC(=S)Nc2ccc(NC(=O)c3ccc(F)c(F)c3F)cc2)cc1Cl [Example 192, N-{4-[3-(5-Chloro-2,4-dimethoxy-phenyl)-thioureido]-phenyl}-2,3,4-trifluoro-benzamide] | > 10 | 0.5 (≈ 1.01 µM) | 14 | > 10 |  | 
11 | COc1cc(OC)c(NC(=S)Nc2ccc(NC(=O)c3c(F)c(F)c(F)c(F)c3F)cc2)cc1Cl [Example 193, N-{4-[3-(5-Chloro-2,4-dimethoxy-phenyl)-thioureido]-phenyl}-2,3,4,5,6-pentafluoro-benzamide] | > 10 | 1.5 (≈ 2.82 µM) | 106 | 3.8 (≈ 7.14 µM) |  | 
12 | COc1cc(OC)c(NC(=S)Nc2ccc(NC(=O)c3ccccc3SC)cc2)cc1Cl [Example 194, N-{4-[3-(5-Chloro-2,4-dimethoxy-phenyl)-thioureido]-phenyl}-2-methyl-sulfanyl-benzamide] | > 10 | 1.5 (≈ 3.07 µM) | 45 | > 10 |  | 
13 | COC(=O)c1cccc(C(=O)Nc2ccc(NC(=S)Nc3cc(Cl)c(OC)cc3OC)cc2)c1 [Example 208, N-{4-[3-(5-Chloro-2,4-dimethoxy-phenyl)-thioureido]-phenyl}-isophthalamic acid methyl ester] | > 10 | 10 (≈ 20 µM) | 25 | > 10 |  | 

Source: patent EP1137645B1, “ALPHA-METHYLBENZYL-CONTAINING THIOUREA INHIBITORS OF HERPES VIRUSES CONTAINING A […] GROUP” (Wyeth, priority 1998, dated 2000)
